Measurements taken from patent US20260364182A1, “PROTEOLYSIS-TARGETING CHIMERAS AGAINST THE PAPAIN-LIKE PROTEASE OF SARS-COV-2” (Tocris Cookson Limited, priority 2022, published 2026).

Columns and labels:
SARS-CoV-2 PLpro = target: T1, SARS-CoV-2 PLpro (Severe acute respiratory syndrome coronavirus 2, UniProt P0DTD1); assay: IC50 inhibitory assay, fluorogenic substrate cleavage by PLpro; format: biochemical; conditions: SARS-CoV-2 PLpro 0.1 μM; substrate 10 μM; pH 8.1; 37 °C; 10 min preincubation
T1 construct: The papain-like protease domain (PLpro) of SARS-CoV-2 (SCoV2)
Procedure: The inhibitory activities of compounds against SARS-CoV-2 PLpro were determined in a reaction buffer containing 20 mM HEPES, 40 mM NaCl, 5% glycerol, 2 mM DTT (freshly added before the measurements), pH 8.1, at 37 °C. A fluorescent substrate of SARS-CoV-2 PLpro (Z-Arg-leu-Arg-Gly-Gly-[…]AMC; Biosyntan, Berlin) was used, and the fluorescence signal of the cleaved substrate was monitored using a Tecan Spark® fluorescence spectrophotometer at an […] wavelength of 460/360 nm. SARS-CoV-2 PLpro (10 μL per well) was pipetted into a 96-well plate together with reaction buffer reaction buffer (50 μL per well, final enzyme concentration: 0.1 μM). Compounds (10 μL per well) were added at varying concentrations, and plates incubated at 37 °C for 10 mins. Finally, the reaction was initiated by adding 30 μL of the substrate (final concentration: 10 μM) dissolved in the reaction buffer.
FIG. 1: PROTAC and parent ligand for SARS-CoV-2 PLpro in a binary IC50 experiment. C10778A PROTAC (top left), comprising a SARS-CoV-2 PLpro targeting ligand C10778B (bottom left) connected to thalidomide via a C3 alkyl linker. IC50 values have been determined in an in vitro inhibitory binding assay whereby the fluorescence signal resulting from cleavage of a fluorogenic substrate by PLpro is measured. Inhibition of PLpro is associated with reduced cleavage of the fluorogenic substrate. […] Assay conditions: experiments were performed in 20 mM HEPES buffer containing 40 mM NaCl 5% glycerol, 2 mM DTT at pH 8.1. A fluorogenic substrate for PLpro (Z-Arg-leu-Arg-Gly-Gly-AMC) was used to determine the inhibition rate of compounds. Final DMSO concentration in each reaction was 1%. Measurements were performed in triplicate.

SARS-CoV-2 [1] = assay: Antiviral assay in infected Vero E6 cells (ATP quantification, Cell Titer Glo); conditions: Severe acute respiratory syndrome coronavirus 2, Vero C1008, 72 h; for inhibition at 10 µM: read-out: Antiviral Activity, 10 uM (cell viability assay), 10 uM; for inhibition at 10 µM / inhibition at 50 µM: Vero E6 cells, MOI 0.05, 72 h; for inhibition at 50 µM: read-out: Antiviral Activity, 50 uM (cell viability assay), 50 uM
Procedure: Vero E6 cells (2×10^4/well) were seeded in 96 well plates one day before the experiment. Pre-treatment, the medium was removed and compounds were added at concentrations varying from 0.1-100 μM. After 24 h incubation, the medium was removed and cells were infected with MOI 0.05 SARS-CoV-2 SARS-CoV2/ZG/297-20. After 1 h infection, the viruses were removed and the same concentration of compounds were added back into the cells. After 72 h incubation at 37 °C, EC50 measurements were made using ATP quantification (Cell Titer Glo).

SARS-CoV-2 [2] = assay: Plaque reduction assay in Vero E6 cells; format: cell-based; conditions: MOI 0.1

Structure (SMILES) | IC50 (SARS-CoV-2 PLpro) | inhibition at 10 µM (SARS-CoV-2 [1]) | inhibition at 50 µM (SARS-CoV-2 [1]) | plaque reduction (viable virus, in words) (SARS-CoV-2 [2]) | EC50 (SARS-CoV-2 [1])
Cc1ccc(NC(=O)CCCCNc2cccc3c2C(=O)N(C2CCC(=O)NC2=O)C3=O)cc1C(=O)N[C@H](C)c1cccc2ccccc12 (some centres unmarked) [TS267] | < 10 µM | < 0% | < 0% |  | 
C[C@H](c1cccc2ccccc12)N1CCC(C(=O)NCc2cc(F)cc(NC(=O)N3CCN(CCCCCCNC(=O)COc4ccc(C5CCC(=O)NC5=O)cc4)CC3)c2)CC1 (some centres unmarked) [TS529] | < 10 µM | < 75% | < 75% |  | 
Cc1ncsc1-c1ccc(CNC(=O)[C@@H]2C[C@@H](O)CN2C(=O)[C@@H](NC(=O)CCCCN2CCN(C(=O)Nc3cc(F)cc(CNC(=O)C4CCN([C@H](C)c5cccc6ccccc56)CC4)c3)CC2)C(C)(C)C)cc1 [TS558] | < 10 µM | < 0% | < 0% |  | 
Cc1ccc(NC(=O)CCOCCOCCOCCNc2cccc3c2C(=O)N(C2CCC(=O)NC2=O)C3=O)cc1C(=O)N[C@H](C)c1cccc2ccccc12 (some centres unmarked) [TS128] | < 10 µM | < 0% | < 0% |  | 
Cc1ccc(NC2CCNCC2)cc1C(=O)N[C@H](C)c1cccc(-c2ccc(CNC(=O)CCCCNC(=O)COc3ccc(C4CCC(=O)NC4=O)cc3)s2)c1 (some centres unmarked) [Compound C10778F] | < 10 µM | < 25% | < 25% |  | 
C[C@H](c1cccc2ccccc12)N1CCC(C(=O)NCc2cc(F)cc(NC(=O)N3CCN(CCOc4cccc5c4C(=O)N(C4CCC(=O)NC4=O)C5=O)CC3)c2)CC1 (some centres unmarked) [TS445] | < 1 µM | < 25% | < 25% |  | 
C[C@H](c1cccc2ccccc12)N1CCC(C(=O)NCc2cc(F)cc(NC(=O)N3CCN(CCCCNC(=O)COc4ccc(C5CCC(=O)NC5=O)cc4)CC3)c2)CC1 (some centres unmarked) [TS526] | < 10 µM | < 0% | < 25% |  | 
Cc1ccc(NC(=O)CCOCCOCCOCCOCCNc2cccc3c2C(=O)N(C2CCC(=O)NC2=O)C3=O)cc1C(=O)N[C@H](C)c1cccc2ccccc12 (some centres unmarked) [TS129] | 10 to 25 µM | < 0% | < 0% |  | 
C[C@H](c1cccc2ccccc12)N1CCC(C(=O)NCc2cc(F)cc(NC(=O)N3CCN(CCNC(=O)COc4ccc(C5CCC(=O)NC5=O)cc4)CC3)c2)CC1 (some centres unmarked) [TS519] | < 10 µM | < 25% | < 25% |  | 
Cc1ccc(NC(=O)CCNc2cccc3c2C(=O)N(C2CCC(=O)NC2=O)C3=O)cc1C(=O)N[C@H](C)c1cccc2ccccc12 (stereo in doubt) [TS140] | > 25 µM | < 0% | < 0% |  | 
C[C@H](c1cccc2ccccc12)N1CCC(C(=O)NCc2cc(F)cc(NC(=O)N3CCN(CCCCCCCCOc4ccc5c(c4)C(=O)N(C4CCC(=O)NC4=O)C5=O)CC3)c2)CC1 (some centres unmarked) [TS516] | 10 to 25 µM | < 50% | > 75% | efficiently reduces viable virus | 4.4 µM
C[C@H](c1cccc2ccccc12)N1CCC(C(=O)NCc2cc(F)cc(NC(=O)N3CCN(CCCCCCCCOc4cccc5c4C(=O)N(C4CCC(=O)NC4=O)C5=O)CC3)c2)CC1 (some centres unmarked) [TS446] | > 25 µM | < 50% | > 75% |  | 
C[C@H](c1cccc2ccccc12)N1CCC(C(=O)NCc2cc(F)cc(NC(=O)N3CCN(CCCCOc4cccc5c4C(=O)N(C4CCC(=O)NC4=O)C5=O)CC3)c2)CC1 (some centres unmarked) [TS452] | < 10 µM | < 0% | < 0% |  | 
Cc1ccc(NC(=O)CCCCCCC(=O)N[C@H](C(=O)N2C[C@H](O)C[C@H]2C(=O)NCc2ccc(-c3scnc3C)cc2)C(C)(C)C)cc1C(=O)N[C@H](C)c1cccc2ccccc12 [TS310] | > 25 µM | < 0% | < 0% |  | 
Cc1ccc(NC(=O)CCCCCCCCC(=O)N[C@H](C(=O)N2C[C@H](O)C[C@H]2C(=O)NCc2ccc(-c3scnc3C)cc2)C(C)(C)C)cc1C(=O)N[C@H](C)c1cccc2ccccc12 [TS311] | > 25 µM | < 0% | < 0% |  | 
Cc1ccc(NC(=O)CCCCOc2cc3c4c(cccc4c2)C(=O)N(C2CCC(=O)NC2=O)C3=O)cc1C(=O)N[C@H](C)c1cccc2ccccc12 (some centres unmarked) [TS251] | 10 to 25 µM | < 0% | < 25% |  | 
C[C@H](c1cccc2ccccc12)N1CCC(C(=O)NCc2cc(F)cc(NC(=O)N3CCN(CCCCOc4ccc5c(c4)C(=O)N(C4CCC(=O)NC4=O)C5=O)CC3)c2)CC1 (some centres unmarked) [TS530] | < 10 µM | < 25% | < 75% |  | 
Cc1ccc(NC2CCNCC2)cc1C(=O)N[C@H](C)c1cccc(-c2ccc(CNC(=O)CCCCCOc3cccc4c3C(=O)N(C3CCC(=O)NC3=O)C4=O)s2)c1 (some centres unmarked) [Compound C10778C] | < 10 µM | < 0% | < 0% |  | 
Cc1ccc(NC(=O)CCOCCOCCNc2ccc3c4c(cccc24)C(=O)N(C2CCC(=O)NC2=O)C3=O)cc1C(=O)N[C@H](C)c1cccc2ccccc12 (some centres unmarked) [TS170] | < 10 µM | < 0% | < 25% |  | 
